According to patent US9250238B2, “Pathogen detection” (priority 2010, dated 2016):

Legend:
Y. enterocolitica = assay: Capture on FOB-BSA micropatterned chips, darkfield and FFT; assay type: binding, Yersinia enterocolitica; details: NHS-activated codelink slide, 10^8 cfu/ml
peanut lectin = target: T1, peanut lectin (Arachis hypogaea, UniProt P02872); assay: Flow immunocytometry of peanut lectin binding to lactose-conjugated microspheres
T1 construct: purchased Sigma (St. Louis, Mo.)
Description: Bishydrazide glycoconjugates can be directly attached onto surface-active substrates for the selective capture of lectins and subsequent binding immunoassays. For example, lactosebishydrazide 6 was attached onto NHS-activated latex microspheres in order to measure the binding affinity of peanut lectin by flow immunocytometry (Kd)) 50 nM), using a FITC-labeled secondary antibody for fluorescence detection (FIGS. 12A and 13). […] However, in some cases the use of carrier proteins such as BSA may be more convenient for surface functionalization by simple physisorption.
For flow cytometry, carboxylic acid functionalized microspheres were conjugated to lactose-bishydrazide 6 via standard EDC coupling for 16 hours at room temperature, followed by multiple washes with PBS. The lactose-conjugated microspheres were dispersed in PBS (1.2 mL) and split into several Eppendorf tubes, which were incubated with increasing concentrations of peanut lectin in the presence or absence of 100-fold excess lactose. After incubating for 2 hours at room temperature, tubes were rinsed and subjected to sequential incubation with anti-lectin rabbit IgG and anti-rabbit FITC IgG as described above. The microspheres were then analyzed for fluorescent immunolabeling using a flow cytometer (Cytomics F500, Beckman Coulter, 10^4 microspheres/sample). […]

Streptococcus pneumonaie = assay: PathoChip detection sensitivity; assay type: binding; details: ligand conjugated to BSA
Vibrio cholerae = assay: PathoChip detection sensitivity; assay type: binding; details: ligand conjugated to BSA
Staphylococcus aureus = assay: PathoChip detection sensitivity; assay type: binding; details: ligand conjugated to BSA
Pseudomonas aeruginosa [1] = assay: PathoChip detection sensitivity; assay type: binding; details: ligand conjugated to BSA
Pseudomonas aeruginosa [2] = assay: Capture of Pseudomonas on glycan-patterned substrates, darkfield and FFT; assay type: binding
Text: A similar approach was used to generate photopatterned arrays of the pulmonary trisaccharide and 2′-fucosyllactose on BSA-coated substrates, using glycan-bishydrazide-ANB conjugates 16 and 17, respectively. These micropatterned substrates were exposed to the opportunistic pathogen Pseudomonas aeruginosa at 10^6-10^8 cfu/mL, then washed and imaged by optical darkfield microscopy to visualize patterns of glycan-immobilized bacteria in a label-free manner (FIGS. 15-17). […] Furthermore, only live Pseudomonas were captured by the trisaccharide ligands; exposing the bacteria to UV irradiation for 2 hours prior to their introduction resulted again in no observable pattern (FIG. 18). […]
Glycan-bishydrazide conjugates could also be patterned onto substrates by microcontact printing (μCP), a well-established “soft lithography” technique based on microfabricated polydimethylsiloxane (PDMS) stamps for the physical transfer of organic or biomolecular ligands, including glycans (Kumar and Whitesides, Appl. Phys. Lett. 1993, 63:2002-2004; Bernard et al., Adv. Mater. 2000, 12:1067-1070; Inerowicz et al., Langmuir 2002, 18:5263-5268; Godula et al., Angew. Chem., Int. Ed 2009, 48:4973-4976; Wendeln et al., Langmuir 2010, 26:4933-4940). […] The substrates were blocked then exposed for 1 hour to Pseudomonas at 10^2-10^8 cfu/mL, then evaluated for evidence of patterned pathogen capture (FIGS. 19, 19A). […]

Mycobacterium smegmatis = assay: PathoChip detection sensitivity; assay type: binding; details: ligand conjugated to BSA
Shigella spp. = assay: PathoChip detection sensitivity; assay type: binding; details: ligand conjugated to BSA
Acinetobacter baumanii = assay: PathoChip detection sensitivity; assay type: binding; details: ligand conjugated to BSA
Chlamydia trachomatis = assay: PathoChip detection sensitivity; assay type: binding; details: ligand conjugated to BSA

T1 sequence (P02872 24-273): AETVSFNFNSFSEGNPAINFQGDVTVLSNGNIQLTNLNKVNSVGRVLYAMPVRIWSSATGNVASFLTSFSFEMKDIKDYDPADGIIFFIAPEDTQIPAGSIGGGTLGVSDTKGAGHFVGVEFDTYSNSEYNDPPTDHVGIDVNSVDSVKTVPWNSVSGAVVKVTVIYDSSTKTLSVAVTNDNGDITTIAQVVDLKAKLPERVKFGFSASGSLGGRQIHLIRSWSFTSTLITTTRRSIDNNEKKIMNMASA

## CC(=O)N([O-])CCCCCNC(=O)CCC(=O)N([O-])CCCCCNC(=O)CCC(=O)N([O-])CCCCCN.[Fe+3] [FOB, ferrioxamine]
Y. enterocolitica
  bacteria binding with ligand attached directly, no BSA linker: less bacteria binding onto the pattern than in the presence of BSA

## NNC(=O)COCCOCCOCCOCCOCCOCCOCC(=O)NN[C@@H]1OC(CO)[C@@H](OC2OC(CO)[C@H](O)[C@H](O)[C@@H]2O)[C@H](O)C1O (stereo partly shown) [conjugate 6, Hexa(ethylene glycol)-linked lactose-bishydrazide conjugate]
Peanut lectin; 6 attached to NHS-activated latex microspheres, FITC secondary antibody
  Kd: 50 nM
Peanut lectin; against 1 mM lactose
  increase of Kd in competition assay: 10 fold

## Hemin
Streptococcus pneumonaie
  sensitivity, Streptococcus pneumonaie: 1E5 cfu/mL
Vibrio cholerae
  sensitivity, Vibrio cholerae: 1E6/1E6 cfu/mL
Staphylococcus aureus
  sensitivity, Staphylococcus aureus: 1E3 cfu/mL
Pseudomonas aeruginosa [1]
  sensitivity, Pseudomonas aeruginosa: 1E3 cfu/mL

## Hexa(ethylene glycol)-Linked 2′-Fucosyllactose-Bishydrazide Conjugate [conjugate 8]
Pseudomonas aeruginosa [2]
  avidity of Pseudomonas cultures relative to pulmonary trisaccharide 7: much lower avidity

## heparin
Mycobacterium smegmatis
  sensitivity, Mycobacterium smegmatis: 1E6 cfu/mL
Vibrio cholerae
  sensitivity, Vibrio cholerae: 1E6+ cfu/mL
Shigella spp.
  sensitivity, Shigella spp.: 1E6+ cfu/mL
Staphylococcus aureus
  sensitivity, Staphylococcus aureus: 1E6 cfu/mL
Acinetobacter baumanii
  sensitivity, Acinetobacter baumanii: 1E6 cfu/mL
Chlamydia trachomatis
  sensitivity, Chlamydia trachomatis: 1E3 cfu/mL
Chlamydia trachomatis; listed as Heparin
  sensitivity, Chlamydia trachomatis: 10^3 cfu/mL
Pseudomonas aeruginosa [1]
  sensitivity, Pseudomonas aeruginosa: 1E6 cfu/mL
